The values below come from US20060079558A1, “R-isomer of 2-{2[N-(2-indanyl)-N-phenylamino]ethyl}piperidine and other dermal anesthetics” (Bridge Pharma. Inc., priority 2004, published 2006).

Data set [1] concerns skin on the back of male or female guinea pigs. Put plainly: Dermal anesthetic activity, pin-prick method after dermal application. In kind it is in vivo. The note with it: for onset of dermal anesthetic activity (onset time): comparison of enantiomers and racemate, in words; for dermal anesthetic effects (anesthetic score): score after 30 min application, FIG. 1, 10% solution of base in water/DMSO, maximum = 6. As for the experimental part: Approximately 18-24 hours before each experiment, the skin on the back of male or female guinea pigs was shaved and depilated with a commercially available hair remover. The anesthetic action of each agent following dermal application was determined using a “pin-prick” method as described by Aberg (Acta Pharmacol Toxicol, 1972, 31: 273-286). Before and at various intervals after treatment, the area of the skin was tested for the presence or absence of a skin twitch in response to six standardized dermal probings with a pointed metal “algesimeter” at a predetermined maximum load of 10 grams. The average number of probings not producing a skin twitch response was designated as the “anesthetic score”. In this test system no response to six stimuli represents a “maximal anesthetic activity”. In the present calculations, the dermal anesthetic activity was calculated from the time of removal of the test article formulation from the skin until skin twitch responses to all but one pinprick were identified. In experiments on the dermal anesthetic activity, a single area of skin 1 inch square was marked off on the middle of the back of each animal. This area was covered by a 1 inch square, 16 layer thick gauze pad onto which was deposited 0.45 ml of a 10% solution of the test agent dissolved in a mixture of water and DMSO. The gauze pad was covered with a 1.5 inch square sheet of Saran Wrap™ which was attached to the surrounding skin with tape. The entire area was then covered by wrapping an elastic bandage around the trunk of the animal. After a predetermined duration of treatment, the coverings were removed and the skin assessed for the presence of anesthesia as described above. Dermal anesthesia tests were performed at ten-minute intervals to measure onset time and duration of dermal anesthetic activity; comparisons were made with reference compounds and vehicle. All test compounds were in the base form and dissolved in DMSO/water when tested for dermal anesthesia.

Data set [2] can be described thus: Comparison studies of dermal toxicity. The note with it: in words. The class given is in vivo.
For data set [3] the following is noted: cited from earlier work.

“Also recorded” adds a separate entry of the source.

Take `c1ccc(N(CCC2CCCCN2)C2Cc3ccccc3C2)cc1` (stereo not shown) [S-LAC-34, reference compound]: in data set [1], the “onset of dermal anesthetic activity (onset time)” value is “longer onset of action” and the “dermal anesthetic effects (anesthetic score)” value is listed as 2.6.
Regarding `c1ccc(N(CC[C@H]2CCCCN2)C2Cc3ccccc3C2)cc1` [R-LAC-34, R-2-{2-[N-(2-indanyl)-N-phenylamino]ethyl}piperidine], the dermal toxicity entry in data set [2] is “low dermal toxicity”. Moreover, in data set [1], the “onset of dermal anesthetic activity (onset time)” value is “shorter onset of action than both the racemate and the S-isomer; also recorded: significantly shorter; also recorded: shorter onset time than the racemic mixture or the S-isomer”; the “dermal anesthetic effects (anesthetic score)” value turned out to be 3.5.
For the molecule `c1ccc(N(CCC2CCCCN2)C2Cc3ccccc3C2)cc1` (racemic) [RS-LAC-34, 2-{2-[N-(2-indanyl)-N-phenylamino]ethyl}piperidine], the local anesthetic activity result in data set [3] (racemate, U.S. Pat. No. 6,413,987) is reported as “active local anesthetic compound”. For the same molecule, the tissue toxicity result in data set [3] (racemic mixture, as described in U.S. Pat. No. 6,413,987) was “little, if any, tissue toxicity”.
